This note sets out measurements from patent US20230286958A1, “PLASMA KALLIKREIN INHIBITORS” (Merck Sharp & Dohme LLC, priority 2020, published 2023).

The target of one assay is human Factor XIa (Homo sapiens (Human), UniProt P03951). As to the kind of experiment: Factor XIa Assay (fluorogenic substrate GPR-AFC). The class given is biochemical. As to conditions: Factor XIa (FXIa).
The target of a further assay is Human plasma kallikrein (Homo sapiens (Human), UniProt P03952). As to the kind of experiment: Kallikrein Assay (fluorogenic substrate Acetyl-K-P-R-AFC). The class given is biochemical. As to conditions: Plasma Kallikrein (PKal). In outline: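 Ki is derived from IC50 with the Cheng-Prusoff equation, and IC50 from the inflection point of a four-parameter logistic curve. The rate of AFC release is read with 0.5 nM purified enzyme and […] substrate at room temperature or 37 °C.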
Sequence of Human plasma kallikrein (P03952 391-638): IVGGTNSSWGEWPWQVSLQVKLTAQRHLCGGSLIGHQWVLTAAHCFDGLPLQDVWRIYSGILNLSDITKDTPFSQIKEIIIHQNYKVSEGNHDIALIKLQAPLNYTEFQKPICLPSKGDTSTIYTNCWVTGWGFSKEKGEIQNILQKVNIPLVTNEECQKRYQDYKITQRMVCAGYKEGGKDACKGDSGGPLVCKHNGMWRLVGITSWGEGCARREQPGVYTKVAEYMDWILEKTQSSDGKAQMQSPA
Sequence of Human plasma kallikrein (P03952 20-390 partner): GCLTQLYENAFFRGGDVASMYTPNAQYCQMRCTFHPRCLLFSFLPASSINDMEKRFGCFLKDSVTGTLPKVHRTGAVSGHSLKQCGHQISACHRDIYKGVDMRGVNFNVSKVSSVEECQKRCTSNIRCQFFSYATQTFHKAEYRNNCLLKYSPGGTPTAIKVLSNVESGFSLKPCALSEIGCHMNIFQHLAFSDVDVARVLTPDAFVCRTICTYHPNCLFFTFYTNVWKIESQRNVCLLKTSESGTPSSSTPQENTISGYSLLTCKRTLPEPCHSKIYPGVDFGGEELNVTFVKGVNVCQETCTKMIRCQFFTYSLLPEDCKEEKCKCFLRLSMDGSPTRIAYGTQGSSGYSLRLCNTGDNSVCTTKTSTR

Sequence of human Factor XIa (P03951 388-625 limits assumed): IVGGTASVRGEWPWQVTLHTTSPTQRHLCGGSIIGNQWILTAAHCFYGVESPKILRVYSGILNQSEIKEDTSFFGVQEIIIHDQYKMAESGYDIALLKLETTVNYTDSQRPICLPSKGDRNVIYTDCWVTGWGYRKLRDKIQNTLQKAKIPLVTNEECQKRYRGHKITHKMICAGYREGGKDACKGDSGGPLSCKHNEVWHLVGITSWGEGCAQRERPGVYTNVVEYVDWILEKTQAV
Sequence of human Factor XIa (P03951 19-387 partner limits assumed): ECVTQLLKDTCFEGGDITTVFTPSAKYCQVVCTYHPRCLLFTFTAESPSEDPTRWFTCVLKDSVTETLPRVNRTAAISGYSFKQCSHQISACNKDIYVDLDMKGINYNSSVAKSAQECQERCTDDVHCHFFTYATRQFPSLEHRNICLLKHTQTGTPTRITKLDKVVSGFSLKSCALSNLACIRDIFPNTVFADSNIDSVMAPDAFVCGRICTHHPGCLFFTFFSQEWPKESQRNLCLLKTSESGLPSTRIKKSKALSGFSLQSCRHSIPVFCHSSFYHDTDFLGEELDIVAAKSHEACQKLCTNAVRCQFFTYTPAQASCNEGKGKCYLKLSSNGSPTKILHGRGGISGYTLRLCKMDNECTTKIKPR

With `Cc1ncc(-c2c(C(F)F)ccc(Cl)c2F)nc1C(=O)Nc1cnn(Cc2nnc(N3C[C@H]4C[C@H]4C3=O)c(C)c2C)c1` [Example 88, 6-(3-Chloro-6-(difluoromethyl)-2-fluorophenyl)-N-(1-((4,5-dimethyl-6-((1R,5S)-2-oxo-3-azabicyclo[3.1.0]hexan-3-yl)pyridazin-3-yl)methyl)-1H-pyrazol-4-yl)-3-methylpyrazine-2-carboxamide], the IC50 at human Factor XIa is 127 nM; against Human plasma kallikrein, 0.7 nM.
Take `Cc1ncc(-c2c(C(F)F)ccc(Cl)c2F)nc1C(=O)Nc1cnn(C(C)c2cnc(N3C[C@H]4C[C@H]4C3=O)nc2)c1` (single isomer, unassigned) [Example 29, 6-(3-Chloro-6-(difluoromethyl)-2-fluorophenyl)-3-methyl-N-(1-((S or R)-1-(2-((1R,5S)-2-oxo-3-azabicyclo[3.1.0]hexan-3-yl)pyrimidin-5-yl)ethyl)-1H-pyrazol-4-yl)pyrazine-2-carboxamide]: the figures for the IC50 against human Factor XIa and at Human plasma kallikrein were 2040 nM and 9.6 nM, respectively.
`[2H]C([2H])(O)c1ncc(-c2c(C(F)F)ccc(Cl)c2F)nc1C(=O)Nc1cnn([C@@H](C)c2cnc(N3C[C@H]4C[C@H]4C3=O)nc2)c1` [Example 182, 6-(3-Chloro-6-(difluoromethyl)-2-fluorophenyl)-3-(hydroxymethyl-d2)-N-(1-((S)-1-(2-((1R,5S)-2-oxo-3-azabicyclo[3.1.0]hexan-3-yl)pyrimidin-5-yl)ethyl)-1H-pyrazol-4-yl)pyrazine-2-carboxamide]: the IC50 against human Factor XIa was 572 nM; on Human plasma kallikrein, 0.7 nM.
On to `Cc1cc(N2C[C@H]3C[C@H]3C2=O)cnc1C(C)n1cc(NC(=O)c2cncc(-c3c(C(F)F)ccc(Cl)c3F)n2)cn1` (single isomer, unassigned) [Example 62, 6-(3-Chloro-6-(difluoromethyl)-2-fluorophenyl)-N-(1-((S or R)-1-(3-methyl-5-((1R,5S)-2-oxo-3-azabicyclo[3.1.0]hexan-3-yl)pyridin-2-yl)ethyl)-1H-pyrazol-4-yl)pyrazine-2-carboxamide], for which the IC50 on human Factor XIa was 7630 nM; against Human plasma kallikrein, 4.2 nM.
In the case of `Cc1ncc(-c2c(OC(F)F)ccc(Cl)c2F)nc1C(=O)Nc1cnn(C(C)c2cnc(N3C[C@H]4C[C@H]4C3=O)c(C)n2)c1` (single isomer, unassigned) [Example 123, 6-(3-Chloro-6-(difluoromethoxy)-2-fluorophenyl)-3-methyl-N-(1-((S or R)-1-(6-methyl-5-((1R,5S)-2-oxo-3-azabicyclo[3.1.0]hexan-3-yl)pyrazin-2-yl)ethyl)-1H-pyrazol-4-yl)pyrazine-2-carboxamide], the IC50 against human Factor XIa came out at 364 nM; against Human plasma kallikrein, 1 nM.
For the molecule `Cc1ncc(-c2c(C#N)ccc(Cl)c2F)nc1C(=O)Nc1cnn(C(C)c2cnc(N3C[C@H]4C[C@H]4C3=O)c(F)c2C)c1` (single isomer, unassigned) [Example 135, 6-(3-Chloro-6-cyano-2-fluorophenyl)-N-(1-((S or R)-1-(5-fluoro-4-methyl-6-((1R,5S)-2-oxo-3-azabicyclo[3.1.0]hexan-3-yl)pyridin-3-yl)ethyl)-1H-pyrazol-4-yl)-3-methylpyrazine-2-carboxamide], the results for the IC50 on human Factor XIa and against Human plasma kallikrein were 4880 nM and 5.4 nM, respectively.
For the molecule `CC(c1cnc(N2CC3CC3C2=O)nc1)n1cc(NC(=O)c2cncc(-c3c(OC(F)F)ccc(Cl)c3F)n2)cn1` (single isomer, unassigned) [Example 71, 6-(3-Chloro-6-(difluoromethoxy)-2-fluorophenyl)-N-(1-((S or R)-1-(2-((1R,5S or 1S,5R)-2-oxo-3-azabicyclo[3.1.0]hexan-3-yl)pyrimidin-5-yl)ethyl)-1H-pyrazol-4-yl)pyrazine-2-carboxamide], the IC50 against human Factor XIa stood at 4300 nM; at Human plasma kallikrein it was 39 nM.
Take `Cc1ncc(-c2c(C(F)F)ccc(Cl)c2F)nc1C(=O)Nc1cnn(C(C)c2cnc(N3C[C@H]4C[C@H]4C3=O)c(NC(=O)OC(C)(C)C)c2)c1` (mixture of isomers) [Example 96, tert-Butyl (5-((S and R)-1-(4-(6-(3-chloro-6-(difluoromethyl)-2-fluorophenyl)-3-methylpyrazine-2-carboxamido)-1H-pyrazol-1-yl)ethyl)-2-((1R,5S)-2-oxo-3-azabicyclo[3.1.0]hexan-3-yl)pyridin-3-yl)carbamate]: the IC50 against human Factor XIa came to 3950 nM; on Human plasma kallikrein, 10.8 nM.
Take `Cc1ncc(-c2c(C(F)F)ccc(Cl)c2F)nc1C(=O)Nc1cnn(Cc2cnc(N3C[C@H]4C[C@H]4C3=O)c(C)n2)n1` [Example 186, 6-(3-Chloro-6-(difluoromethyl)-2-fluorophenyl)-3-methyl-N-(2-((6-methyl-5-((1R,5S)-2-oxo-3-azabicyclo[3.1.0]hexan-3-yl)pyrazin-2-yl)methyl)-2H-1,2,3-triazol-4-yl)pyrazine-2-carboxamide]: the IC50 against human Factor XIa came out at 1380 nM; at Human plasma kallikrein, 1.4 nM.
Regarding `Cc1ncc(-c2c(C#N)ccc(Cl)c2F)nc1C(=O)Nc1cnn(C(C)c2cnc(N3C[C@H]4C[C@H]4C3=O)c(F)c2C)c1` (single isomer, unassigned) [Example 136, 6-(3-Chloro-6-cyano-2-fluorophenyl)-N-(1-((R or S)-1-(5-fluoro-4-methyl-6-((1R,5S)-2-oxo-3-azabicyclo[3.1.0]hexan-3-yl)pyridin-3-yl)ethyl)-1H-pyrazol-4-yl)-3-methylpyrazine-2-carboxamide], the IC50 is 591 nM on human Factor XIa and 0.2 nM at Human plasma kallikrein.
For `Cc1nc(N2C[C@H]3C[C@H]3C2=O)ncc1Cn1cc(NC(=O)c2nc(-c3c(C(F)F)ccc(Cl)c3F)cnc2CO)cn1` [Example 156, 6-(3-Chloro-6-(difluoromethyl)-2-fluorophenyl)-3-(hydroxymethyl)-N-(1-((4-methyl-2-((1R,5S)-2-oxo-3-azabicyclo[3.1.0]hexan-3-yl)pyrimidin-5-yl)methyl)-1H-pyrazol-4-yl)pyrazine-2-carboxamide], the IC50 on human Factor XIa stood at 162 nM; against Human plasma kallikrein, 0.9 nM.
As for `CCc1ncc(-c2c(C(F)F)ccc(Cl)c2F)nc1C(=O)Nc1cnn(C(C)c2cnc(N3C[C@H]4C[C@H]4C3=O)c(C)c2)c1` (mixture of isomers) [Example 214, 6-(3-Chloro-6-(difluoromethyl)-2-fluorophenyl)-3-ethyl-N-(1-((S and R)-1-(5-methyl-6-((1R,5S)-2-oxo-3-azabicyclo[3.1.0]hexan-3-yl)pyridin-3-yl)ethyl)-1H-pyrazol-4-yl)pyrazine-2-carboxamide], the IC50 at human Factor XIa was 944 nM; against Human plasma kallikrein, 1.2 nM.
The corresponding values for `Cc1cc(C(C)n2cc(NC(=O)c3cncc(-c4c(OC(F)F)ccc(Cl)c4F)n3)cn2)nnc1N1C[C@H]2C[C@H]2C1=O` (single isomer, unassigned) [Example 114, 6-(3-Chloro-6-(difluoromethoxy)-2-fluorophenyl)-N-(1-((S or R)-1-(5-methyl-6-((1R,5S)-2-oxo-3-azabicyclo[3.1.0]hexan-3-yl)pyridazin-3-yl)ethyl)-1H-pyrazol-4-yl)pyrazine-2-carboxamide] are 558 nM and 0.7 nM.
For `Cc1ncc(-c2c(C(F)F)ccc(Cl)c2F)nc1C(=O)Nc1cnn(Cc2cnc(N3C[C@H]4C[C@H]4C3=O)c(Cl)c2)c1` [Example 7, N-(1-((5-Chloro-6-((1R,5S)-2-oxo-3-azabicyclo[3.1.0]hexan-3-yl)pyridin-3-yl)methyl)-1H-pyrazol-4-yl)-6-(3-chloro-6-(difluoromethyl)-2-fluorophenyl)-3-methylpyrazine-2-carboxamide], the IC50 against human Factor XIa is 527 nM; against Human plasma kallikrein, 1.9 nM.
